The subject of data set [1] is HeLa cells. Description: Monopolar spindle phenotype, high content imaging. Format: cell-based. The note with it: Homo sapiens, 8 hours, analyzed with Columbus, read-out: EC50 for monopolar spindles. On the procedure: HeLa cells (5 × 10^3 cells/well) were seeded in 96-well plates (Corning, 3603). Drugs were diluted appropriately in medium from 10 mM stocks in 100% DMSO and added to the cells. Following 8 hours incubation with drugs, cells were fixed with 4% paraformaldehyde (20 minutes at room temperature), permeabilized with PBST (0.5% Triton X-100 in PBS) for 15 minutes, and washed before blocking. Cells were blocked with 4% BSA for at least 30 minutes at room temperature and stained with anti-β-tubulin monoclonal antibodies (Sigma) at 400-fold dilution for 1 hour with Alexafluor 488-conjugated goat anti-mouse secondary antibodies (Invitrogen) at 300-fold dilution for 1 hour. DNA was detected with 4′,6-diamidino-2-phenylindole dihydrochloride (DAPI). Actin was detected with Phalloidin. High content screening (Perkin Elmer Operetta) was used to photograph stained cells at 40× magnification, and Columbus software was used for statistical analysis of the percentage of mitotic cells with monopolar spindles present in treated cells over the total number of cells in mitosis counted after 8 hours incubation with drugs.

Data set [2] in a line: Pharmacokinetic study. The note with it: BALB/c nude, mouse, plasma, ip; 200 mg/kg intraperitoneally, single dose, HeLa xenograft nude mice. Format: in vivo. On the procedure:
A HPLC-MS/MS method was developed for single-dose pharmacokinetic (PK) study of YL001 in HeLa xenograft BALB/c nude mice. YL001 was administered intraperitoneally at a dose of 200 mg/kg. Blood samples were then collected by enucleating eyeballs at 0.083, 0.167, 0.333, 0.5, 1, 2, 6, 12, 24 hours in heparinized polypropylene tubes. Three mice were sacrificed at each time point. Samples were centrifuged immediately at 4000 r/min for 20 min to separate plasma. The final sample for HPLC-MS/MS detection by QTRAP 6500 (AB Sciex, USA) was a mixture (plasma: H2O: methanol = 1:1:8). All individual data were pooled together to further perform PK analysis. DAS 2.1.2 were used to estimate PK parameters by non-compartmental analysis.

In data set [3] the test system is panel of 468 typical, atypical and mutant human kinases. The experiment in a line: Kinase profiling (KINOMEscan, DiscoverX). It is filed as binding. The note with it: 468 kinases, 1 μM. As for the experimental part: Kinase profiling was conducted by the DiscoverX as KINOMEscan profiling service for testing the inhibition of YL001 of interest against 468 kinases. Selectivity score S(35) was defined as follows:
S(35) = (number of non-mutant kinases with% Control < 35)/(number of non-mutant kinases tested).

Data set [4] has as its system 4T1/6TG. The experiment in a line: Antiproliferation assay (Alamar Blue), 4T1/6TG. It is filed as cell-based. The note with it: 6TG resistant mouse breast cancer, read-out: EC50 of YL001. In general terms: Resazurin is reduced to fluorescent resorufin, in cell work by metabolically active cells.
In data set [5] the test system is HeLa. The experiment in a line: Antiproliferation assay (Alamar Blue), HeLa. Format: cell-based. The note with it: Homo sapiens, 48 h, HeLa cell line, two days. On the procedure: (§1) Cytotoxic activities of the compounds of interest were investigated with human cancer cell lines using the Alamar Blue assay. Cells (5 × 10^3 cells/well) were seeded into 96-well plates (Corning, 3603). Various sample concentrations (compounds of interest) were added to each well in duplicate, and incubated at 37°C with 5% CO2 for two days such that cells were in the exponential growth phase at the time of drug addition. Ten microliters of the Alamar Blue Solution (Invitrogen, Alamar Blue) were added to each well and incubated at 37°C for up to 2 hours in a humidified, 5% CO2 atmosphere. After incubation, florescence was measured using a microplate reader (Tecan) at an excitation wavelength of 540 nm and emission of 590 nm. Each inhibitory concentration was measured in triplicate, and averaged data points ± SD are shown. Statistical analysis was carried out with GraphPad Prism 5 and the fifty-percent effective concentration is expressed as EC50.

Data set [6] deals with A2780/taxol. The experiment in a line: Antiproliferation assay (Alamar Blue), A2780/taxol. It is filed as cell-based. The note with it: Homo sapiens, taxol resistant ovarian cancer, read-out: EC50 of YL001. On the procedure: as §1
Data set [7] relates to human and rodent cancer cell lines. Description: Antiproliferative activity over the panel of 15 cancer cell lines. It is filed as cell-based. The note with it: 15 cell lines tested, read-out: EC50 values predominantly in the range. As for the experimental part: as §1
The test system of data set [8] is AGS. The experiment in a line: Antiproliferation assay (Alamar Blue), AGS. Format: cell-based. The note with it: Homo sapiens, stomach cancer, read-out: EC50 of YL001. On the procedure: as §1
The subject of data set [9] is 786-O. The experiment in a line: Antiproliferation assay (Alamar Blue), 786-O. It is filed as cell-based. The note with it: Homo sapiens, 786-0, renal cancer, read-out: EC50 of YL001. On the procedure:
as §1

The test system of data set [10] is K562. Description: Antiproliferation assay (Alamar Blue), K562. Format: cell-based. The note with it: Homo sapiens; K562, leukemia; read-out: EC50 of YL001. On the procedure: as §1
The target in data set [11] is T1, Eg5 motor domain (Homo sapiens, UniProt P52732).
T1 sequence (P52732 18-359 limits assumed): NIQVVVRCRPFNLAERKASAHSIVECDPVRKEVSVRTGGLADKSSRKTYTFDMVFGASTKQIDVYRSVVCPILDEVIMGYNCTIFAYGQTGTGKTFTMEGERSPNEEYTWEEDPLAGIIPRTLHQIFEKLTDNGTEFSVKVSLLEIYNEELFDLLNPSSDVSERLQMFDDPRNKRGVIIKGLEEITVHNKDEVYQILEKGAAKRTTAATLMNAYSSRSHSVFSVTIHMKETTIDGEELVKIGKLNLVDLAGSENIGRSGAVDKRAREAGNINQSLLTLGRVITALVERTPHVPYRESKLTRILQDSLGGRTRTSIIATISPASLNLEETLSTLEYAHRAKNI
The experiment in a line: SPR assay (Biacore T200). Format: binding. The note with it: SPR Biacore T200, 25°C. As for the experimental part: Interactions of the Eg5 motor domain and compounds of interest were analyzed using the Biacore T200 system (GE Healthcare, Uppsala, Sweden) at 25°C. Eg5 motor protein obtained as previously described (51) was immobilized on a sensor chip (CM5) using an amine coupling kit (GE Healthcare, Buckinghamshire, UK). […] For binding studies, analytes were applied at corresponding concentrations in running buffer at a flow rate of 30 μL/minute with a contact time of 60 seconds and a dissociation time of 60 seconds. Chip platforms were washed with running buffer and 50% DMSO. Data were analyzed with Biacore evaluation software (T200 Version 1.0) by curve fitting using a steady state 1:1 binding model and a kinetic model.
(In general: SPR reads the build-up and loss of mass on a sensor chip optically.)

Data set [12] concerns DU145. The experiment in a line: Antiproliferation assay (Alamar Blue), DU145. It is filed as cell-based. The note with it: Homo sapiens, DU-145; DU145, prostate cancer; read-out: EC50 of YL001. On the procedure:
as §1

In data set [13] the test system is HCT 116. Description: Cell cycle analysis by flow cytometry. It is filed as cell-based, Human. The note with it: HCT 116, 8 hours treatment with 50 μM. (Flow cytometry measures light scatter and fluorescence of single cells or particles in a stream.)
In data set [14] the test system is HeLa cells. Description: Colony formation. It is filed as cell-based. The note with it: Homo sapiens, exposed 24 hours, cultured 10 days. As for the experimental part: HeLa cells (5 × 10^2 cells/well) were seeded into 6-well plates and were treated with a series of gradient concentrations of YL001 for 24 hours, followed by washing and continual culture for 10 days. DMSO was used as a negative control, and STLC was used as a positive control. Cells were fixed with ethanol for more than 30 minutes and dyed with crystal violet for more than 30 minutes. Clones were counted with OpenCFU [54].

The term EC50 denotes the concentration needed to bring the measured effect to its halfway point. A word on the half-life: it is the time in which the quantity being followed falls by half. A low value points to rapid decline. Broadly, the Kd is the constant that tells how readily two partners part at equilibrium. Lower therefore signals higher affinity. In general, IC50 refers to the concentration needed to halve the response being measured. Low values mean greater potency in that assay, high ones weaker potency in that assay.

Turning to `Cc1ccc(-n2nnnc2/C(=C/N(C)C)C(=O)c2cccc(C(F)(F)F)c2)cc1` [YL001, (Z)-3-(dimethylamino)-2-(1-(p-tolyl)-1H-tetrazol-5-yl)-1-(3-(trifluoromethyl)phenyl)prop-2-en-1-one], the concentration giving a half-maximal response (EC50) is 15.3 µM in data set [1]; 20 ± 0.5 µM in [4]; 14.3 ± 0.78 µM in [5]; 20.1 ± 0.68 µM in data set [6]; 5 to 20 µM in data set [7]; 20.2 ± 0.01 µM in data set [8]. The 50% effective concentration (EC50) turned out to be 14.7 ± 0.62 µM in data set [9], 9.76 ± 0.52 µM in data set [10] and 26.5 ± 0.27 µM in data set [12]. Besides, the half-life in [2] was 5.3 h. For the same compound, in data set [3], the “activity against kinase panel” value is on record as “no activity”. In data set [11], this compound gave a dissociation constant (Kd) of 0.133 µM. The “percentage of cells with 4N DNA content” value in data set [13] is reported as “over 80%”. Further, in data set [14], inhibition was half-maximal at 0.124 µM (IC50).

For the origin of these results see paper PMC5522084, “Eg5 inhibitor YL001 induces mitotic arrest and inhibits tumor proliferation” (Oncotarget, 2017).
